Several values for one entry are separate records, joined by “and”; a condition that tells them apart may be missing. Identical values can stand only once.

The results in this text go back to patent US20120172298A1, “GLP-1 AND FGF21 COMBINATIONS FOR TREATMENT OF DIABETES TYPE 2” (Novo Nordisk A/S, priority 2009, published 2012).

The subject of experiment [1] is pancreatic islets from diabetic db/db mice. Put plainly: Restoration of glucose stimulated insulin release ex vivo (islet perifusion). To be noted: FGF21 = 50 nM Compound F1, GLP-1 = 100 nM Compound G3. Set-up: AUC for time 35-75 minutes (glucose response), single repetitions / AUC for time 75-140 minutes (forskolin response), single repetitions: unit not given here. The experiment is classed as cell-based. Here is the method:
This ex vivo example investigates the ability of pancreatic islets from diabetic db/db mice to restore, in response to treatment with FGF21 and GLP-1 compounds, the ability to release insulin in response to glucose stimulation.
Islets from 25 db/db mice (Charles River), 15 weeks of age, were isolated according to the following procedure:
Animals were killed by cervical dislocation and fixated with pins on a Styrofoam plate. Pancreata were removed and transferred to a Packard vial containing 5 ml collagenase (Life Science, grade II, cat. no. 100502) 300 units/ml (one pancreas/vial) which was kept on ice until all pancreata were removed. Then the pancreata were shaken in the Grant/Edmund S25 thermoshaker at 200 strokes/min. at 37° C. for 5 min. The tissue was transferred to a fresh vial containing 5 ml 150 units/ml collagenase (supernatant was discarded) and shaken again in the thermoshaker for 5 min. The tissue was further shaken 3-5 min. on the thermoshaker, and thereafter all shaking is done by hand for 5-10 sec. each time. These steps were repeated until all tissue was digested. The process was followed continuously under the stereomicroscope and once digested the tissue was pooled and collected in progressively fewer tubes. All supernatants were washed 3 times in HBSS+0.5% NCS (HBSS (10×) from Gibco, cat. no. 14060, is diluted 10× in H2O before use, Newborn Calf Serum (NCS) from Gibco, cat. no. 26010-066), allowed to sediment for 5 min. between each wash, and left on ice, following which the islets were ready for picking. Islets were purified by transferring a little bit of supernatant to a Petri dish, filling up with HBSS+NCS and subsequently transferring (by mouth pipetting) with a constriction pipette to a new Petri dish. From there the islet were re-picked until pure, and then incubated in RPMI 1640 medium (Gibco, cat no 61870-010)+10% NCS at 37° C.
After incubation, the islets were washed in Krebs Ringer solution (115 mM NaCl, 4.7 mM KCl, 2.6 mM CaCl2, 1.2 mM KH2PO4, 1.2 mM MgSO4, 10 mM HEPES, 0.2% BSA, 2 mM glutamine, 5 mM NaHCO3, pH 7.4) and subsequently used in an islet perifusion experiment (Suprafusion 2500 from Brandel). For each of the three preincubation conditions four perifusion columns each with 60 islets were used. The islets were placed in Bio-gel P2 (Bio-Rad. cat. no. 150-4114) in the columns with a nylon mesh below and above the gel. The islets were initially perifused for 40 minutes with Krebs Ringer solution containing 3 mM glucose to obtain a stable baseline of insulin release. After 40 minutes the buffer was exchanged to 15 mM glucose for 30 minutes (time 40-70 min). Then the buffer was exchanged to 15 mM glucose containing 10 μM forskolin (Tocris 1099, batch 3A/86008) for 40 minutes (time 70-110 min). Finally the buffer was exchanged to low glucose (3 mM) for 30 minutes (time 110-140 min). The buffer was set to flow through the perifusion system at a rate of 0.3 ml/minute. Samples were taken every 5 minutes from time 30 to 140 min. Samples were stored at −20° C. and subsequently analysed for insulin, essentially as described by Poulsen et al. in Journal of Biomolecular Screening 12(X); p. 1-8, 2007 (LOCI (Luminescent Oxygen Channeling Immunoassay) sandwich immunoassay).
The results (ng/ml insulin) are shown in Table 1 below as mean+/−standard error of mean (SEM). The figures for the control and the FGF21 compound are based on three repetitions (due to problems with one of the four columns in these two experiments), while the figures for the GLP-1 compound are based on four repetitions.
The corresponding Area Under the Curve (designated AUC) figures were also calculated, and for the statistics the Student's T-test was used.

The test system of another experiment is 3T3-L1 adipocytes. Put plainly: FGF21 activity assay, glucose uptake in 3T3-L1 adipocytes. The experiment is classed as cell-based, mouse. Here is the method:
The following assay may be used for determining the biological activity, or potency, of FGF21 compounds.
Mouse 3T3-L1 fibroblasts (e.g. available from ATCC, catalogue no. CL-173) are maintained in basal medium (DMEM (4500 mg/I Glucose) with 10% Fetal Bovine Serum (FBS) and Penicillin/Streptomycin). The cells are not allowed to reach confluence and should be passed (transferred to new vials) before reaching approx. 60% of confluency (by visual inspection).
For the glucose uptake assay, cells are plated 80,000 cells/well in a 24 well plate, or 20,000 cells/well in a 96 well plate, and when they reach confluency (high density, with a view to have differentiated adipose cells made), the medium is changed from basal medium to basal medium containing Troglitazone, IBMX, Dexamethasone (commercially available from, e.g., Sigma) and human insulin (commercially available from, e.g., Novo Nordisk A/S).
The cells are used 7-14, preferably 7-10, days after initiation of differentiation. […] The cells are lysed with Triton X-100 and lysates transferred to a 96 wells plate, microscint-40 (commercially available from, e.g., Perkin Elmer) is added and amount of tracer counted in a TOP-counter (e.g. a Packard top-counter from Perkin Elmer).
The EC50 of the FGF21 compound in question is calculated, and may be indicated relative to that of, e.g., compound F1.

The next experiment deals with human GLP-1 receptor (human, UniProt P43220 24-463). The experiment can be described thus: cell-based or functional assay.
Where [2] appears, read: insulin AUC per perifusion column.

Chain of human GLP-1 receptor (P43220 24-463): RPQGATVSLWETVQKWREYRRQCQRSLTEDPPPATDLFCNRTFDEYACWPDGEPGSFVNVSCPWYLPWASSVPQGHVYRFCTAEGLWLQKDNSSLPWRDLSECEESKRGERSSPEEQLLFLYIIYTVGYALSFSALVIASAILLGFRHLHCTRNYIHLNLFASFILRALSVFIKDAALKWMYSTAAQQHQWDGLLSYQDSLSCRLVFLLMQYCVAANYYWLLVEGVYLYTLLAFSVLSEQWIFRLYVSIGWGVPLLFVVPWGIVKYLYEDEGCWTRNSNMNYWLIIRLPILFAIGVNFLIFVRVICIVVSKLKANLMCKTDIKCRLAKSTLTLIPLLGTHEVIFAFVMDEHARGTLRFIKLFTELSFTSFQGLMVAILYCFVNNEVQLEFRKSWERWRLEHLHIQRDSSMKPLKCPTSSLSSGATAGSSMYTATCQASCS

As for “N-epsilon26-[2-(2-{2-[2-(2-{2-[(S)-4-Carboxy-4-(17-carboxyheptadecanoylamino)butyrylamino]ethoxy}-ethoxy)acetylamino]ethoxy}ethoxy)acetyl][Aib8,Arg34]GLP-1-(7-37) [compound G3]”, in experiment [1] (setting [2]), the “AUC for time 35-75 minutes (glucose response), single repetitions” value is 450.5 and 528.5 and 492.9 and 367.8; the “AUC for time 75-140 minutes (forskolin response), single repetitions” value was 3339 and 4005 and 3037 and 2674. The “AUC for time 75-140 minutes (forskolin response), mean” value in experiment [1] (insulin AUC, * FGF21 vs GLP-1) is listed as “(mean 3239)”. Also, the “AUC for time 35-75 minutes (glucose response), mean” value in experiment [1] (insulin AUC, ** vs control) is given as “(mean 459.9**)”.

Turning to “S-71-({2-[2-(2-{2-[2-(2-{2-[(S)-4-carboxy-4-(19-carboxynonadecanoyl-amino)butyrylamino]ethoxy}ethoxy)acetylamino]ethoxy}ethoxy)acetylamino]ethylcarbamoyl}methyl)-[Cys71]Met-FGF21 [compound F2]”, the “EC50 relative to that of compound F1” value in the experiment on 3T3-L1 adipocytes came out at 11%.

B1: N-alpha1-[2-(2-{2-[2-(2-{2-[(S)-4-carboxy-4-(17-carboxyheptadecanoylamino)butyrylamino]ethoxy}ethoxy)acetylamino]ethoxy}ethoxy)acetyl][Arg56, Arg59, Arg69, Arg122]-Met-FGF21 (protein, listed as Homo sapiens)
chain: HPIPDSSPLLQFGGQVRQRYLYTDDAQQTEAHLEIREDGTVGGAADQSPESLLQLRALRPGVIQILGVRTSRFLCQRPDGALYGSLHFDPEACSFRELLLEDGYNVYQSEAHGLPLHLPGNRSPHRDPAPRGPARFLPLPGLPPALPEPPGILAPQPPDVGSSDPLSMVGPSQGRSPSYAS
modifications: N-terminal Met; N-alpha fatty diacid-gGlu-OEG-OEG acylation; mat_peptide (1)..(181); DISULFID (75)..(93)
As for B1, in the experiment with 3T3-L1 adipocytes, the “EC50 relative to that of compound F1” value stood at 30%.

B2: N-epsilon37-[2-(2-{2-[2-(2-{2-[(S)-4-Carboxy-4-({trans-4-[(19-carboxynonadecanoylamino)methyl]cyclohexanecarbonyl}amino)butyrylamino]ethoxy}ethoxy)acetylamino]e … (peptide)
peptide: HAEGTFTSDVSSYLEEQAAREFIAWLVRGRK
modifications: DesaminoHis at position 7 (GLP-1 numbering; position 1 of SEQ ID NO:3); Lys37 acylated at N-epsilon with 19-carboxynonadecanoyl-Trx-gamma-Glu-OEG-OEG albumin binder
In the case of B2, in the experiment with human GLP-1 receptor, the “EC50 of cAMP formation (AlphaScreen cAMP assay), relative to that of compound G1” value is ~5 times the EC50 of compound G1.
